Where a name gives a salt, the structure may show the parent alone.
Experiments:
Conditions in all cases: 72 h
[1] = system: Vero E6; test: drug sensitivity score (DSS) for viability; higher = more toxic; extreme values may be limits of the assay
[2] = system: HepG2; test: as above
[3] = system: Calu-3; test: as above
[4] = system: Caco-2; test: as above
[5] = system: U2OS; test: as above
[6] = system: Vero E6; test: cell viability relative to DMSO; higher = less toxic
[7] = system: HepG2; test: as above
[8] = system: Calu-3; test: as above
[9] = system: Caco-2; test: as above
[10] = system: U2OS; test: as above
[11] = system: Vero E6; test: relative viability EC50 (midpoint between 100% and the lowest measured viability); higher = less toxic
[12] = system: HepG2; test: as above
[13] = system: Calu-3; test: as above
[14] = system: Caco-2; test: as above
[15] = system: U2OS; test: as above

| SMILES | drug sensitivity score [1] | drug sensitivity score [2] | drug sensitivity score [3] | drug sensitivity score [4] | drug sensitivity score [5] | cell viability ([6]; 1 nM) [%] | cell viability ([6]; 10 nM) [%] | cell viability ([6]; 100 nM) [%] | cell viability ([6]; 1000 nM) [%] | cell viability ([6]; 10000 nM) [%] | cell viability ([7]; 1 nM) [%] | cell viability ([7]; 10 nM) [%] | cell viability ([7]; 100 nM) [%] | cell viability ([7]; 1000 nM) [%] | cell viability ([7]; 10000 nM) [%] | cell viability ([8]; 1 nM) [%] | cell viability ([8]; 10 nM) [%] | cell viability ([8]; 100 nM) [%] | cell viability ([8]; 1000 nM) [%] | cell viability ([8]; 10000 nM) [%] | cell viability ([9]; 1 nM) [%] | cell viability ([9]; 10 nM) [%] | cell viability ([9]; 100 nM) [%] | cell viability ([9]; 1000 nM) [%] | cell viability ([9]; 10000 nM) [%] | cell viability ([10]; 1 nM) [%] | cell viability ([10]; 10 nM) [%] | cell viability ([10]; 100 nM) [%] | cell viability ([10]; 1000 nM) [%] | cell viability ([10]; 10000 nM) [%] | relative viability EC50 [11] [µM] | relative viability EC50 [12] [µM] | relative viability EC50 [13] [µM] | relative viability EC50 [14] [µM] | relative viability EC50 [15] [µM] |
| --- | --- | --- | --- | --- | --- | --- | --- | --- | --- | --- | --- | --- | --- | --- | --- | --- | --- | --- | --- | --- | --- | --- | --- | --- | --- | --- | --- | --- | --- | --- | --- | --- | --- | --- | --- |
| Cc1cc(Nc2nc(N[C@@H](C)c3ncc(F)cn3)ncc2Cl)[nH]n1 [AZD1480] | 0 | 0.7 | 0 | 0.2 | 0 | 94.3 | 96.2 | 95.9 | 100 | 97.9 | 98.6 | 101 | 96.5 | 87.9 | 89.4 | 106 | 91.6 | 99.7 | 96.6 | 90.8 | 93.2 | 102 | 95.5 | 102 | 84.2 | 99.7 | 102 | 102 | 101 | 97 | > 10 | > 10 | > 10 | > 10 | > 10 |
| N#Cc1cc(F)cc(-c2nc(-c3ccc(F)cn3)no2)c1 [AZD9272] | 0 | 0 | 0 | 0 | 0 | 96.7 | 95.2 | 95.8 | 89.5 | 108 | 94.3 | 99.5 | 95.5 | 107 | 96.2 | 109 | 92.1 | 97.7 | 90.4 | 97.5 | 96.7 | 105 | 101 | 111 | 94.8 | 94.9 | 99 | 96.7 | 104 | 103 | > 10 | > 10 | > 10 | > 10 | > 10 |
| COc1ccccc1N1CCN(CCN2C(=O)CC3(CCCC3)CC2=O)CC1 [BMY-7378] | 0 | 0 | 0 | 0 | 0 | 97.3 | 95.6 | 99.9 | 90.1 | 106 | 106 | 102 | 105 | 98.4 | 108 | 92.7 | 95.2 | 109 | 110 | 106 | 89 | 93.9 | 97.5 | 97.3 | 103 | 93.5 | 100 | 96.3 | 95.8 | 102 | > 10 | > 10 | > 10 | > 10 | > 10 |
| CCC(=O)O[C@]1(C(=O)CO)CC[C@H]2[C@@H]3CCC4=CC(=O)CC[C@]4(C)[C@H]3CC[C@@]21C [CB-03-01] | 0 | 0 | 0 | 0 | 0 | 101 | 107 | 101 | 96.8 | 99.6 | 102 | 106 | 90.8 | 95.4 | 96.1 | 93.7 | 97 | 102 | 109 | 94.9 | 99.4 | 103 | 100 | 101 | 101 | 99.9 | 104 | 98.3 | 102 | 97 | > 10 | > 10 | > 10 | > 10 | > 10 |
| CO/N=C(\C(=O)N[C@@H]1C(=O)N2C(C(=O)O)=C(CSC(=O)c3ccco3)CS[C@H]12)c1csc(N)n1 [CEFTIOFUR HYDROCHLORIDE] | 0 | 0 | 0 | 0 | 0 | 92.5 | 107 | 93.9 | 96.9 | 106 | 106 | 98.5 | 92.4 | 103 | 103 | 96.3 | 110 | 99.4 | 104 | 102 | 99.9 | 97 | 90.6 | 95.4 | 99.3 | 104 | 95.6 | 100 | 97.4 | 104 | > 10 | > 10 | > 10 | > 10 | > 10 |
| CC(C)(CO)Cc1cc(C(C)(C)C)c(O)c(C(C)(C)C)c1 [CGP-7930] | 0 | 0 | 0 | 0 | 0 | 108 | 109 | 95.6 | 108 | 102 | 109 | 107 | 91.1 | 108 | 101 | 93.6 | 99.2 | 98.3 | 105 | 102 | 96.8 | 98.5 | 101 | 99.7 | 96 | 98.2 | 101 | 103 | 101 | 104 | > 10 | > 10 | > 10 | > 10 | > 10 |

Source: the supplement of paper PMC13380429
